Measurements from patent US11377473B2, “Albumin-binding prodrugs of auristatin E derivatives” (priority 2017, dated 2022).
Read-outs that look alike come from different tables or passages of the source.

Assays:
[1] = Reconstitution stability (maleimide hydrolysis, loss of API) in reconstitution buffer; format: physicochemical; conditions: after 4 hours incubation at room temperature in reconstitution buffer (50 mM sodium phosphate pH 7.65 containing 4% HPβCD and 5% sucrose)
Method: (§1) The albumin-binding AE-Keto drug derivatives were reconstituted in 50 mM sodium phosphate buffer pH 7.6 which contained 5% sucrose (w/v) and 2% 2-hydroxypropyl-β-cyclodextrin (2-HPβCD). Both drugs were reconstituted at a concentration of 1277 μM (equal to 4.5 mg/kg murine xenograft dose), the dissolution of both drugs was confirmed by HPLC (method 2, 254 nm). Stability of the reconstituted drugs was monitored by HPLC at room temperature every 15 minutes over a period of 240 minutes for maleimide hydrolysis and loss of API.
as §1, with “AE-Ester” for “AE-Keto drug”, “4% 2-HPβCD.” for “2% 2-hydroxypropyl-β-cyclodextrin (2-HPβCD).”, “655” for “1277”, “2.4” for “4.5”, “310” for “254”

[2] = pH-dependent release of free drug from human serum albumin conjugates; format: physicochemical; conditions: upon changing the pH from 7.4 to 4.1, 37° C., up to 24 hours
Method: The albumin-binding auristatin-Sulf07 derivatives were prepared as 2 mM stock solutions in anhydrous DMSO.
Release at pH 7.4: 442.4 μL of 1000 μM of reduced human serum albumin (881 μM free cysteine-34) and 727.6 μL PBS Buffer (4 mM sodium phosphate pH 7.4 and 150 mM NaCl) were added to a sealed HPLC vial and incubated at 37° C. for 30 minutes. After 30 minutes incubation 130 μL of the appropriate DMSO drug stock solution was added to the pre-incubated vial to produce a 200 μM solution of auristatin drug and a 300 μM solution of albumin (free cysteine-34). The mixture was allowed to react for 10 minutes at 37° C. and then analyzed by HPLC (method 7, 20 μL injection). Injections were repeated after 1 hour and then every hour up to 24 hours.
Release at pH 4.1: 408.5 μL of 1000 μM of reduced human serum albumin (881 μM free cysteine-34) and 539.4 μL of water were added to a sealed HPLC vial and incubated at 37° C. for 30 minutes. In a separate vial 190 μL sodium acetate buffer 50 mM pH 3.0 and 24.7 μL 1 M HCl were incubated at 37° C. for 30 minutes. […] The resulting solution was analyzed directly by HPLC (method 7). […]
The percentage of released free drug was determined by HPLC with a calibration curve (200 μM, 100 μM, 50 μM, 25 μM and 12.5 μM) for the free drugs i.e. AE-Keto for AE-Keto-Sulf07 and AE-Ester for AE-Ester-Sulf07. […]

[3] = tested on: panel of 6 selected human cancer cell lines (LXFL 1674L, SW-620, CAL-27, RKO, MDA-MB-468, SK-OV-3); test: IC50 determination in a panel of tumor cell lines (CellTiter-Blue Cell Viability assay); format: cell-based
Method: Samples were provided to Charles River Discovery Research Services Germany GmbH as frozen stock solutions in pharmaceutical grade DMSO (Sigma-Aldrich, Taufkirchen, Germany). On each day of the experiment, a frozen aliquot of stock solution was thawed. Subsequent serial dilutions were realized with complete RPMI 1640 cell culture medium using an intermediate dilution plate. 10 μL taken from the intermediate dilution plate were then transferred to 140 μL/well of the cell culture plate. Cells were treated with the test compounds at 10 concentrations in triplicate in half-log steps from 0.003 nM to 100 nM for a period of 96 h.
The compounds were tested in a panel of 6 selected human cancer cell lines by using CellTiter-Blue® Cell Viability assay (Promega, Mannheim, Germany). IC values are reported as absolute IC50 values, obtained for a test compound as the geometric mean of IC50 values over all cell lines tested.
The cell lines used were LXFL 1674L (established from patient-derived xenograft at Charles River Discovery Research Services Germany GmbH), SW-620 (kindly provided by the NCI, Bethesda, Md., USA), CAL-27 (purchased from DSMZ, Deutsche Sammlung von Mikroorganismen und Zellkulturen, Braunschweig, Germany), RKO, MDA-MB-468, and SK-OV-3 (from ATCC, American Type Culture Collection, Rockville, Md., USA). Authenticity of all cell lines was proven at the DSMZ by STR (short tandem repeat) analysis, a PCR based DNA-fingerprinting methodology. Cell lines were routinely passaged once or twice weekly and maintained in culture for up to 20 passages. Cells were grown at 37° C. in a humidified atmosphere with 5% CO2 in RPMI 1640 medium (25 mM HEPES, with L-glutamine, Biochrom, Berlin, Germany) supplemented with 10% (v/v) fetal calf serum (Sigma-Aldrich, Taufkirchen, Germany) and 0.1 mg/mL gentamicin (Life Technologies, Karlsruhe, Germany). The CellTiter-Blue® Cell Viability Assay was used according to manufacturer's instructions. Briefly, cells were harvested from exponential phase cultures, counted and plated in 96-well flat-bottom microtiter plates at a cell density of 4,000-10,000 cells/well depending on the cell line's growth rate. After a 24 h recovery period to allow the cells to resume exponential growth, 10 μL of culture medium (six control wells/plate) or of culture medium with test compound were added. The compounds were applied at 10 concentrations in triplicate in half-log increments up to 100 nM and cells were treated continuously for 96 h. […] Following an incubation period of up to 4 h, fluorescence (FU) was measured by using the Enspire Multimode Plate Reader (excitation λ=531 nm, emission λ=615 nm). IC50 values were determined with GraphPad Prism bioanalytic software (San Diego, Calif., USA).

[4] = Homo sapiens, 96 h, read-out: Geometric mean IC50, geometric mean over six cell lines, 96 h treatment

For `CC[C@H](C)[C@@H]([C@@H](CC(=O)N1CCC[C@H]1[C@H](OC)[C@@H](C)C(=O)N[C@H](C)[C@@H](OC(=O)c1ccc(C(C)=NNC(=O)CCCCCN2C(=O)C=CC2=O)cc1)c1ccccc1)OC)N(C)C(=O)[C@@H](NC(=O)[C@H](C(C)C)N(C)C)C(C)C` [AE-Ester-EMCH, reference compound], the maleimide hydrolyzed [1] was 11.0%.

In the case of `CC[C@H](C)[C@@H]([C@@H](CC(=O)N1CCC[C@H]1[C@H](OC)[C@@H](C)C(=O)N[C@H](C)[C@@H](OC(=O)c1ccc(C(C)=O)cc1)c1ccccc1)OC)N(C)C(=O)[C@@H](NC(=O)[C@H](C(C)C)N(C)C)C(C)C` (stereo in doubt) [AE-Ester, (1S,2R)-2-((3R)-3-((S)-1-((3R,4S,5R)-4-((S)-2-((S)-2-(dimethylamino)-3-methylbutanamido)-N,3-dimethylbutanamido)-3-methoxy-5-methylheptanoyl)pyrrolidin-2-yl)-3-methoxy-2-methylpropanamido)-1-phenylpropyl 4-acetylbenzoate], the “percent of free drug released from albumin conjugate” value [2] is reported as “higher than the percent of AE-Keto released”, the IC50 [3, 4] is reported as 0.339 nM and the IC50 ([3]; read-out: Geometric mean IC50, geometric mean over six cell lines, 96 h treatment) is reported as 0.399 ± 0.00019 nM.

`CC[C@H](C)[C@@H]([C@@H](CC(=O)N1CCC[C@H]1[C@H](OC)[C@@H](C)C(=O)N[C@H](C)C(=O)c1ccccc1)OC)N(C)C(=O)[C@@H](NC(=O)[C@H](C(C)C)N(C)C)C(C)C` [AE-Keto, (S)-1-(((S)-1-(((3R,4S,5S)-3-methoxy-1-((S)-2-((1R,2R)-1-methoxy-2-methyl-3-oxo-3-(((R)-1-oxo-1-phenylpropan-2-yl)amino)propyl)pyrrolidin-1-yl)-5-methyl-1-oxoheptan-4-yl)(methyl)amino)-3-methyl-1-oxobutan-2-yl)amino)-N,N,3-trimethyl-1-oxobutan-2-aminium 2,2,2-trifluoroacetate] showed an IC50 [3, 4] of 0.259 nM.

Work on `CC[C@H](C)[C@@H]([C@@H](CC(=O)N1CCC[C@H]1[C@H](OC)[C@@H](C)C(=O)N[C@H](C)C(=NNC(=O)CCCCCN1C(=O)C=CC1=O)c1ccccc1)OC)N(C)C(=O)[C@@H](NC(=O)[C@H](C(C)C)N(C)C)C(C)C` [AE-Keto-EMCH, reference compound] yielded a maleimide hydrolyzed [1] of 5.4%.
